From the supplement of paper PMC10883282
± gives the standard deviation of the averaged measurements.

Test system: RD-ES
Assay: relative viability vs DMSO control (72 h) (fraction); higher = more viable cells
How it was run: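 Relative viability was measured with ATPLite and expressed as percent growth, averaged across up to triplicate wells. Sarcoma cell lines had been seeded in 384-well plates to reach 80–90% confluence, dosed after 24 h, and incubated 72 h at 37 °C, 5% CO2. All data were rescaled on a scale where 1 is full and 0 is none.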

Row | SMILES | relative viability (0.00017 µM) | relative viability (0.00051 µM) | relative viability (0.00152 µM) | relative viability (0.00457 µM) | relative viability (0.01372 µM) | relative viability (0.04115 µM) | relative viability (0.1235 µM) | relative viability (0.3704 µM) | relative viability (1.111 µM) | relative viability (3.333 µM) | relative viability (10 µM)
1 | C=CC(=O)Nc1cccc(Oc2nc(Nc3ccc(N4CCN(C)CC4)cc3)nc3ccsc23)c1 [Olmutinib] | 0.914 ± 0.052 | 0.949 ± 0.025 | 0.953 ± 0.022 | 0.953 ± 0.0047 | 0.9443 ± 0.0083 | 0.978 ± 0.015 | 0.979 ± 0.02 | 0.977 ± 0.012 | 0.9749 ± 0.0091 | 0.931 ± 0.068 | 0.774 ± 0.074
2 | COc1cc2c(Oc3ccc4[nH]c(C)cc4c3F)ncnc2cc1OCCCN1CCCC1 [Cediranib] | 0.96 ± 0.026 | 0.985 ± 0.038 | 0.95 ± 0.023 | 0.958 ± 0.018 | 0.992 ± 0.023 | 0.961 ± 0.017 | 0.962 ± 0.01 | 0.9773 ± 0.0095 | 0.887 ± 0.013 | 0.971 ± 0.025 | 0.943 ± 0.022
3 | Cc1cnc(Nc2ccc(OCCN3CCCC3)cc2)nc1Nc1cccc(S(=O)(=O)NC(C)(C)C)c1 [Fedratinib] | 1.01 ± 0.013 | 1 ± 0.036 | 1.02 ± 0.032 | 1.01 ± 0.027 | 0.98 ± 0.034 | 0.972 ± 0.024 | 0.904 ± 0.026 | 0.7114 ± 0.0066 | 0.145 ± 0.0063 | 0.00883 ± 0.0011 | 0.00587 ± 0.0018
4 | CCCS(=O)(=O)Nc1ccc(F)c(C(=O)c2c[nH]c3ncc(-c4ccc(Cl)cc4)cc23)c1F [Vemurafenib] | 0.978 ± 0.032 | 0.983 ± 0.024 | 0.975 ± 0.044 | 0.995 ± 0.051 | 0.982 ± 0.039 | 0.994 ± 0.05 | 0.99 ± 0.041 | 0.991 ± 0.047 | 0.984 ± 0.039 | 0.967 ± 0.042 | 0.7 ± 0.27
5 | Cn1cnc2c(F)c(Nc3ccc(Br)cc3F)c(C(=O)NOCCO)cc21 [Binimetinib] | 0.9413 ± 0.0039 | 0.9487 ± 0.0073 | 0.976 ± 0.024 | 0.969 ± 0.026 | 0.942 ± 0.025 | 0.938 ± 0.053 | 0.962 ± 0.043 | 0.919 ± 0.061 | 0.883 ± 0.026 | 0.925 ± 0.034 | 0.879 ± 0.042
6 | COc1c(OCCCN2CCOCC2)ccc2c1N=C(NC(=O)c1cnc(N)nc1)N1CCN=C21 [Copanlisib] | 0.977 ± 0.031 | 0.932 ± 0.023 | 0.947 ± 0.056 | 0.638 ± 0.087 | 0.571 ± 0.05 | 0.494 ± 0.023 | 0.344 ± 0.013 | 0.218 ± 0.0085 | 0.0703 ± 0.0047 | 0.007 ± 0.00036 | 0.0101 ± 0.0011
7 | COc1cc2nccc(Oc3ccc(NC(=O)Nc4cc(C)on4)c(Cl)c3)c2cc1OC [Tivozanib] | 0.987 ± 0.038 | 1.01 ± 0.026 | 0.9944 ± 0.0095 | 1.02 ± 0.038 | 1.02 ± 0.022 | 1.03 ± 0.02 | 1 ± 0.024 | 1.02 ± 0.018 | 0.981 ± 0.031 | 0.912 ± 0.036 | 0.768 ± 0.02
8 | CC[C@H](Nc1ncnc2[nH]cnc12)c1nc2cccc(F)c2c(=O)n1-c1ccccc1 [Idelalisib] | 0.9939 ± 0.0089 | 0.99 ± 0.033 | 0.977 ± 0.04 | 0.984 ± 0.037 | 0.977 ± 0.033 | 0.98 ± 0.019 | 0.982 ± 0.028 | 0.97 ± 0.027 | 0.909 ± 0.026 | 0.88 ± 0.034 | 0.744 ± 0.019
9 | Cc1cc(C)c(/C=C2\C(=O)Nc3ccccc32)[nH]1 [Semaxanib] | 0.962 ± 0.022 | 0.973 ± 0.034 | 0.961 ± 0.052 | 0.994 ± 0.02 | 0.969 ± 0.053 | 0.976 ± 0.013 | 0.93 ± 0.024 | 0.965 ± 0.026 | 0.915 ± 0.064 | 0.871 ± 0.033 | 0.792 ± 0.012
10 | Cc1ccc(F)c(NC(=O)Nc2ccc(-c3cccc4[nH]nc(N)c34)cc2)c1 [Linifanib] | 1 ± 0.043 | 0.998 ± 0.012 | 0.994 ± 0.011 | 0.978 ± 0.023 | 1 ± 0.028 | 1.01 ± 0.048 | 1 ± 0.014 | 0.982 ± 0.038 | 1.01 ± 0.018 | 0.975 ± 0.022 | 0.983 ± 0.043
11 | COCc1c(-c2cc3cc(C)cc(OC)c3s2)c2c(N)ncnn2c1CN1CCNC(=O)C1 [Rogaratinib] | 1.04 ± 0.027 | 0.997 ± 0.028 | 1.03 ± 0.012 | 1.02 ± 0.032 | 1.03 ± 0.013 | 1 ± 0.036 | 0.971 ± 0.043 | 0.958 ± 0.013 | 0.91 ± 0.029 | 0.774 ± 0.014 | 0.455 ± 0.0058
12 | N#CC[C@H](C1CCCC1)n1cc(-c2ncnc3[nH]ccc23)cn1 [Ruxolitinib] | 0.938 ± 0.025 | 0.967 ± 0.014 | 0.95 ± 0.031 | 0.949 ± 0.024 | 0.932 ± 0.025 | 0.939 ± 0.05 | 0.933 ± 0.057 | 0.946 ± 0.029 | 0.939 ± 0.028 | 0.941 ± 0.028 | 0.954 ± 0.065
13 | CCN1CCN(Cc2ccc(Nc3ncc(F)c(-c4cc(F)c5nc(C)n(C(C)C)c5c4)n3)nc2)CC1 [Abemaciclib] | 0.975 ± 0.016 | 0.9649 ± 0.0077 | 0.988 ± 0.02 | 0.961 ± 0.027 | 0.908 ± 0.047 | 0.771 ± 0.038 | 0.638 ± 0.014 | 0.544 ± 0.015 | 0.526 ± 0.074 | 0.447 ± 0.057 | 0.292 ± 0.023
14 | CNC(=O)c1cc(Oc2ccc(NC(=O)Nc3ccc(Cl)c(C(F)(F)F)c3)c(F)c2)ccn1 [Regorafenib] | 0.965 ± 0.055 | 0.959 ± 0.053 | 0.991 ± 0.036 | 0.975 ± 0.047 | 0.983 ± 0.042 | 0.979 ± 0.014 | 0.986 ± 0.034 | 0.973 ± 0.052 | 0.932 ± 0.058 | 0.87 ± 0.043 | 0.776 ± 0.033
15 | Nc1cc(C(F)(F)F)c(-c2cc(N3CCOCC3)nc(N3CCOCC3)n2)cn1 [Buparlisib] | 0.97 ± 0.037 | 0.956 ± 0.025 | 0.946 ± 0.026 | 0.949 ± 0.021 | 0.935 ± 0.013 | 0.922 ± 0.01 | 0.864 ± 0.0088 | 0.717 ± 0.021 | 0.341 ± 0.0073 | 0.102 ± 0.0037 | 0.0722 ± 0.0025
16 | CC(C)NC(=O)C1CCC(n2c(NC(=O)c3ccc(F)cc3)nc3ccc(CN4CCC(C(C)(C)O)CC4)cc32)CC1 (stereo not drawn) [Belizatinib] | 1.01 ± 0.025 | 1.02 ± 0.021 | 0.997 ± 0.021 | 1.02 ± 0.013 | 1.03 ± 0.021 | 0.995 ± 0.021 | 0.907 ± 0.01 | 0.648 ± 0.02 | 0.455 ± 0.014 | 0.395 ± 0.016 | 0.261 ± 0.009
17 | CC1(C)CNc2cc(NC(=O)c3cccnc3NCc3ccncc3)ccc21 [Motesanib] | 0.969 ± 0.051 | 0.962 ± 0.048 | 0.957 ± 0.05 | 1.01 ± 0.038 | 0.964 ± 0.053 | 0.994 ± 0.033 | 0.989 ± 0.035 | 0.991 ± 0.04 | 0.989 ± 0.038 | 0.974 ± 0.062 | 0.846 ± 0.015
18 | CC(=O)Nc1cccc(-n2c(=O)n(C3CC3)c(=O)c3c(Nc4ccc(I)cc4F)n(C)c(=O)c(C)c32)c1 [Trametinib] | 0.979 ± 0.039 | 0.973 ± 0.036 | 0.969 ± 0.044 | 0.957 ± 0.022 | 0.973 ± 0.049 | 0.959 ± 0.037 | 0.946 ± 0.019 | 0.975 ± 0.031 | 0.978 ± 0.06 | 0.957 ± 0.052 | 0.941 ± 0.062
